The values below come from US20260007681A1, “INDOLE DERIVATIVES AS ESTROGEN RECEPTOR DEGRADERS” (REGENTS OF THE UNIVERSITY OF MICHIGAN, priority 2022, published 2026).

Where only a bound is given, the exact number is not on record here.

The target of one assay is ER in MCF-7 cells (Homo sapiens (Human), UniProt P03372). Nature of the assay: In-cell western (ICW) ER degradation assay in MCF-7 cells (Compounds A1-A70). Format: cell-based. As to conditions: MCF-7 cells, 16 hrs treatment; for DC50: ER degradation, 0.02 to 300 nM, read-out: MCF7 ICW DC50; for Dmax: MCF7, maximal ER degradation, read-out: MCF7 ICW Dmax (%). As to the method:
(§1) ERa degradative activity of compounds can be assessed in MCF-7 and T47D Cells. MCF-7 and T47D cell are seeded and are subsequently treated with the compounds at certain concentrations (e.g., 0.02 to 300 nM). DMSO can be used as vehicle control. Cells are fixed and are blocked with Intercept (PBS) Blocking Buffer (e.g., Li—COR, Odyssey Blocking Buffer), and are stained with ER (e.g., 1:500, Cell signaling) primary antibody for overnight at cold room. Secondary Antibody (e.g., IRDye 800CW Goat anti-Rabbit IgG) and CellTag 700 Stain are added in Intercept (PBS) Blocking Buffer. Finally, cell plate is placed in incubator to dry. Image and signal are captured on Odyssey® DLx Imaging System.
(§2) Day 3: After 16 hrs of compounds treatment, cells were fixed by 4% PFA and permeabilized with elution buffer (0.1% Triton X-100 in 1% PBS Solution). Subsequently, cells were blocked with Intercept (PBS) Blocking Buffer (Li—COR, Odyssey Blocking Buffer), and were stained with ER (1:500, Cell signaling) primary antibody for overnight at cold room.
(§3) Day 4: Remove the buffer, add IRDye 800CW Goat anti-Rabbit IgG Secondary Antibody (1:2000) and CellTag 700 Stain (1:500) in Intercept (PBS) Blocking Buffer. Finally, cell plate is placed in incubator to dry. Image and signal were captured on Odyssey® DLx Imaging System.

In a further assay the target is CRBN/DDB1 (Homo sapiens (Human), UniProt Q96SW2). Format: binding. As to conditions: His tagged CRBN+DDB-DLS7+CXU4, Cy5-labeled Thalidomide probe, one hour incubation; read-out: CRBN HTRF IC50. As to the method: The binding potency was determined using H-TRF assay technology (Perkin Elmer). Compounds were serially diluted in DMSO and 0.2 μL volume was transferred to white 384-well plate.

Another assay addresses ER in T47D cells (Homo sapiens (Human), UniProt P03372). Nature of the assay: In-cell western (ICW) ER degradation assay in T47D cells (Compounds A1-A70). The format is cell-based. Particulars: T47D cells, 16 hrs treatment; for DC50: ER degradation, 0.02 to 300 nM; for Dmax: T47D, maximal ER degradation, read-out: T47D ICW Dmax (%). As to the method: as §1, §2, §3

Chain of CRBN/DDB1 (Q96SW2 whole entry): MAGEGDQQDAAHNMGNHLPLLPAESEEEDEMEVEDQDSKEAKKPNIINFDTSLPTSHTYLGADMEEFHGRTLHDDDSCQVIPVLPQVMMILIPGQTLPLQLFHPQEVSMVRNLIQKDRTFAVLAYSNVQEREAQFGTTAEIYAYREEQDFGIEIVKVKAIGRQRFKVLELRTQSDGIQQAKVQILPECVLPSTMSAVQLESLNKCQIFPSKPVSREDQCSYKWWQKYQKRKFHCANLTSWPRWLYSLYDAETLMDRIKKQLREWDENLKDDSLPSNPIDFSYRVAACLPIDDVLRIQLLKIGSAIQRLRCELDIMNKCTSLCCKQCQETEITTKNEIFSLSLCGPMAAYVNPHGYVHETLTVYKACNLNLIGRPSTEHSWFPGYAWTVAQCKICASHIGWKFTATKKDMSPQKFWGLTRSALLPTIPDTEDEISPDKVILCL
Chain of CRBN/DDB1 (Q16531 whole entry partner): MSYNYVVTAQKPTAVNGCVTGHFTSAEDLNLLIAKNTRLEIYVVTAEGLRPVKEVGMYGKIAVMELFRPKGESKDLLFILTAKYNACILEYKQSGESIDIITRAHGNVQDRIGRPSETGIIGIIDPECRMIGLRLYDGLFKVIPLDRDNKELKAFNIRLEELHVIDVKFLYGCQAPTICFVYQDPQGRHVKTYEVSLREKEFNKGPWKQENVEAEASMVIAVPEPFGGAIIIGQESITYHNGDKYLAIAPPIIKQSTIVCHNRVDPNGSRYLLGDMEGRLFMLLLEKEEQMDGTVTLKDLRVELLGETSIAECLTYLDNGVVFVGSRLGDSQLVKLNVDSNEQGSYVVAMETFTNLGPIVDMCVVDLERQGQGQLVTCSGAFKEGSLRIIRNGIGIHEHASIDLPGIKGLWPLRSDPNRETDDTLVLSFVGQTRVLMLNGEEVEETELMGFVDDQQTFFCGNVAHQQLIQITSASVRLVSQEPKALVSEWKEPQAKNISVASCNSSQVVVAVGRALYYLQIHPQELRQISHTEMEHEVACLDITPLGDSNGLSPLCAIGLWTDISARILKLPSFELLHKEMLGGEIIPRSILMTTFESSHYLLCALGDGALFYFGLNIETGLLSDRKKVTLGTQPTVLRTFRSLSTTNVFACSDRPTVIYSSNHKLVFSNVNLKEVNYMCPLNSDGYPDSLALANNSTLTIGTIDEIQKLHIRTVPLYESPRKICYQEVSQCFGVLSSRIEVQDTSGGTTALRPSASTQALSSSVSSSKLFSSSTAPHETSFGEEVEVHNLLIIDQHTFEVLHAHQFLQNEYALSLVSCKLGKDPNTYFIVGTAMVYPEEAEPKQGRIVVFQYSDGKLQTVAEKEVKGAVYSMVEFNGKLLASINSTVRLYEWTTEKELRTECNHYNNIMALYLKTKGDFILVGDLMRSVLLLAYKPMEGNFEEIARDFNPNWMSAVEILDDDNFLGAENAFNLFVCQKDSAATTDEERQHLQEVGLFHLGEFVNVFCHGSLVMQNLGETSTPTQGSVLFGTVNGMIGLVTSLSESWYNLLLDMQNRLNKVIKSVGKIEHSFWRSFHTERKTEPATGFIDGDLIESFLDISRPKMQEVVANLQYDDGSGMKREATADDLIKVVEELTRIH
Chain of ER in MCF-7 cells (P03372 whole entry): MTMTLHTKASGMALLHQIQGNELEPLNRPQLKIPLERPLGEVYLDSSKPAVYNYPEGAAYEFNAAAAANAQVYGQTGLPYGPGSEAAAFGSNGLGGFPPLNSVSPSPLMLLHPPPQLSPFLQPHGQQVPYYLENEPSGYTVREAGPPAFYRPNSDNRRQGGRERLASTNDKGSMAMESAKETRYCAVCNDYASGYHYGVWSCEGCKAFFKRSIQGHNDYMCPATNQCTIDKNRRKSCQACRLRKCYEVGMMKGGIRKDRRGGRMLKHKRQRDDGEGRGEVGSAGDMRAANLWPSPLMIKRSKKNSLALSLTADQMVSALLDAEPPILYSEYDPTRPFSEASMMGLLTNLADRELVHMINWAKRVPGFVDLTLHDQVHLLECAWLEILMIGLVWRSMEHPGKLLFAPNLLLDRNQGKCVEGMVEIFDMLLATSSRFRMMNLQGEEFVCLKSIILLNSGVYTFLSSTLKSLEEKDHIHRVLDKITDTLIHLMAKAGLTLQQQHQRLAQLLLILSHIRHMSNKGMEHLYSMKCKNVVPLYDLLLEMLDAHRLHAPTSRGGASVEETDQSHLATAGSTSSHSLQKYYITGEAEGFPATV
Chain of ER in T47D cells (P03372 whole entry): as above

Take `C[C@@H]1Cc2c([nH]c3ccccc23)[C@@H](c2cnc(N3CCC(CN4CCN5c6ccc7c(c6OC[C@@H]5C4)CN(C4CCC(=O)NC4=O)C7=O)CC3)nc2)N1CC(F)F` (stereo partly drawn) [Compound A5, 3-((S)-7-((1-(5-((1R,3R)-2-(2,2-difluoroethyl)-3-methyl-2,3,4,9-tetrahydro-1H-pyrido[3,4-b]indol-1-yl)pyrimidin-2-yl)piperidin-4-yl)methyl)-1-oxo-1,3,5,5a,6,7,8,9-octahydro-2H-pyrazino[1′,2′:4,5]oxazino[2,3-e]isoindol-2-yl)piperidine-2,6-dione]: at ER in MCF-7 cells, the DC50 was 1 to 10 nM and the Dmax lay within 50 to 75%. Also, the IC50 at CRBN/DDB1 fell in the range of 50 to 500 nM.
Regarding `C[C@@H]1Cc2c([nH]c3ccccc23)[C@@H](c2cnc(N3CCC4(CCC(CN5CCN6c7cc8c(cc7OC[C@@H]6C5)C(=O)N([C@H]5CCC(=O)NC5=O)C8)CC4)CC3)nc2)N1CC(C)(C)F` [Compound A9, (S)-3-((S)-3-((3-(5-((1R,3R)-2-(2-fluoro-2-methylpropyl)-3-methyl-2,3,4,9-tetrahydro-1H-pyrido[3,4-b]indol-1-yl)pyrimidin-2-yl)-3-azaspiro[5.5]undecan-9-yl)methyl)-8-oxo-1,2,3,4,4a,5,8,10-octahydro-9H-pyrazino[1′,2′:4,5][1,4]oxazino[2,3-f]isoindol-9-yl)piperidine-2,6-dione], at ER in MCF-7 cells, the DC50 was < 1 nM and the Dmax was 25 to 50%. For the same compound, the IC50 on CRBN/DDB1 was > 5000 nM.
Taken in the same sequence, the figures for `C[C@@H]1Cc2c([nH]c3ccccc23)[C@@H](c2ccc(N3CCC4(CC3)CC(CN3CCN5c6cc7c(cc6OC[C@@H]5C3)C(=O)N([C@H]3CCC(=O)NC3=O)C7)C4)nc2)N1CC(F)F` [Compound A11, (S)-3-((S)-3-((7-(5-((1R,3R)-2-(2,2-difluoroethyl)-3-methyl-2,3,4,9-tetrahydro-1H-pyrido[3,4-b]indol-1-yl)pyridin-2-yl)-7-azaspiro[3.5]nonan-2-yl)methyl)-8-oxo-1,2,3,4,4a,5,8,10-octahydro-9H-pyrazino[1′,2′:4,5][1,4]oxazino[2,3-f]isoindol-9-yl)piperidine-2,6-dione] were 1 to 10 nM, 50 to 75% and 500 to 5000 nM.
`CS(=O)(=O)N1CCc2c([nH]c3ccccc23)[C@H]1c1c(F)cc(N2CCC3(CCN(C(=O)CN4Cc5cc6c(cc5C4)C(=O)N(C4CCC(=O)NC4=O)C6=O)CC3)CC2)cc1F` (stereo partly drawn) [Compound A21, 6-(2-(9-(3,5-difluoro-4-((R)-2-(methylsulfonyl)-2,3,4,9-tetrahydro-1H-pyrido[3,4-b]indol-1-yl)phenyl)-3,9-diazaspiro[5.5]undecan-3-yl)-2-oxoethyl)-2-(2,6-dioxopiperidin-3-yl)-6,7-dihydropyrrolo[3,4-f]isoindole-1,3(2H,5H)-dione]: the IC50 at CRBN/DDB1 was > 5000 nM.
Consider `C[C@@H]1Cc2c([nH]c3ccccc23)[C@@H](c2cnc(N3CCO[C@H](CN4CCN5c6cc7c(cc6OC[C@@H]5C4)C(=O)N(C4CCC(=O)NC4=O)C7)C3)nc2)N1CC(C)(C)F` (stereo partly drawn) [Compound A22, 3-((S)-3-(((R)-4-(5-((1R,3R)-2-(2-fluoro-2-methylpropyl)-3-methyl-2,3,4,9-tetrahydro-1H-pyrido[3,4-b]indol-1-yl)pyrimidin-2-yl)morpholin-2-yl)methyl)-8-oxo-1,2,3,4,4a,5,8,10-octahydro-9H-pyrazino[1′,2′:4,5][1,4]oxazino[2,3-f]isoindol-9-yl)piperidine-2,6-dione], for which the figures for the DC50 on ER in T47D cells and on ER in MCF-7 cells were < 1 nM and 1 to 10 nM, respectively. Also, the Dmax at ER in T47D cells and on ER in MCF-7 cells was 25 to 50% throughout. In addition, the IC50 at CRBN/DDB1 was in the range of 50 to 500 nM.
For `C[C@@H]1Cc2c([nH]c3ccccc23)[C@@H](c2ccc(N3CCC(CN4CCN5c6ccc7c(c6OC[C@@H]5C4)CN([C@H]4CCC(=O)NC4=O)C7=O)CC3)nc2)N1CC(F)F` [Compound A23, (S)-3-((S)-7-((1-(5-((1R,3R)-2-(2,2-difluoroethyl)-3-methyl-2,3,4,9-tetrahydro-1H-pyrido[3,4-b]indol-1-yl)pyridin-2-yl)piperidin-4-yl)methyl)-1-oxo-1,3,5,5a,6,7,8,9-octahydro-2H-pyrazino[1′,2′:4,5][1,4]oxazino[2,3-e]isoindol-2-yl)piperidine-2,6-dione], at ER in T47D cells, the DC50 was in the range of 1 to 10 nM and the greatest degradation seen (Dmax) was in the range of 50 to 75%. Moreover, on ER in MCF-7 cells, the DC50 lay in the range of 1 to 10 nM and the Dmax lay within 25 to 50%. Also, the IC50 on CRBN/DDB1 lay within 50 to 500 nM.
Turning to `C[C@@H]1Cc2c([nH]c3ccccc23)[C@@H](c2ccc(N3CCC4(CC3)CC(CN3CCN5c6ccc7c(c6OC[C@@H]5C3)CN([C@H]3CCC(=O)NC3=O)C7=O)C4)nc2)N1CC(F)F` [Compound A24, (S)-3-((S)-7-((7-(5-((1R,3R)-2-(2,2-difluoroethyl)-3-methyl-2,3,4,9-tetrahydro-1H-pyrido[3,4-b]indol-1-yl)pyridin-2-yl)-7-azaspiro[3.5]nonan-2-yl)methyl)-1-oxo-1,3,5,5a,6,7,8,9-octahydro-2H-pyrazino[1′,2′:4,5][1,4]oxazino[2,3-e]isoindol-2-yl)piperidine-2,6-dione], at ER in MCF-7 cells, the DC50 fell in the range of 10 to 100 nM and the Dmax was in the range of 25 to 50%. The IC50 on CRBN/DDB1 was < 50 nM.
Take `C[C@@H]1Cc2c([nH]c3ccccc23)[C@@H](c2cnc(N3CCC4(CC3)CC(CN3CCC5(CC3)COc3cc6c(cc35)CN(C3CCC(=O)NC3=O)C6=O)C4)nc2)N1CC(F)F` (stereo partly drawn) [Compound A26, 3-(1′-((7-(5-((1R,3R)-2-(2,2-difluoroethyl)-3-methyl-2,3,4,9-tetrahydro-1H-pyrido[3,4-b]indol-1-yl)pyrimidin-2-yl)-7-azaspiro[3.5]nonan-2-yl)methyl)-7-oxo-5,7-dihydro-2H,6H-spiro[furo[2,3-f]isoindole-3,4′-piperidin]-6-yl)piperidine-2,6-dione]: the IC50 on CRBN/DDB1 was in the range of 500 to 5000 nM.
For the compound `C[C@@H]1Cc2c([nH]c3ccccc23)[C@@H](c2cnc(N3CCN(CC4CCN(c5ccc(N6CCC(=O)NC6=O)cc5)CC4)CC3)nc2)N1CC(F)F` [Compound A38, 1-(4-(4-((4-(5-((1R,3R)-2-(2,2-difluoroethyl)-3-methyl-2,3,4,9-tetrahydro-1H-pyrido[3,4-b]indol-1-yl)pyrimidin-2-yl)piperazin-1-yl)methyl)piperidin-1-yl)phenyl)dihydropyrimidine-2,4(1H,3H)-dione], at ER in T47D cells, the DC50 was in the range of 1 to 10 nM and the Dmax is < 25%. The IC50 at CRBN/DDB1 lay within 500 to 5000 nM.
As to `COc1cc(N2CCC(CN3CCC(c4ccc(N[C@H]5CCC(=O)NC5=O)c(F)c4)CC3)CC2)ccc1[C@@H]1c2[nH]c3ccccc3c2C[C@@H](C)N1CC(F)F` [Compound A40, (S)-3-((4-(1-((1-(4-((1R,3R)-2-(2,2-difluoroethyl)-3-methyl-2,3,4,9-tetrahydro-1H-pyrido[3,4-b]indol-1-yl)-3-methoxyphenyl)piperidin-4-yl)methyl)piperidin-4-yl)-2-fluorophenyl)amino)piperidine-2,6-dione], on ER in T47D cells, the DC50 was < 1 nM and the Dmax was in the range of 25 to 50%. On CRBN/DDB1, the concentration for half-maximal inhibition (IC50) was > 5000 nM.
For the compound `COc1cc(N2CCC(CN3CCN(c4ccc(NC5CCC(=O)NC5=O)c(F)c4)CC3)CC2)ccc1[C@@H]1c2[nH]c3ccccc3c2C[C@@H](C)N1CC(F)F` (stereo partly drawn) [Compound A41, 3-((4-(4-((1-(4-((1R,3R)-2-(2,2-difluoroethyl)-3-methyl-2,3,4,9-tetrahydro-1H-pyrido[3,4-b]indol-1-yl)-3-methoxyphenyl)piperidin-4-yl)methyl)piperazin-1-yl)-2-fluorophenyl)amino)piperidine-2,6-dione], on ER in T47D cells, the DC50 lay within 10 to 100 nM and the Dmax fell in the range of 25 to 50%. Besides, on CRBN/DDB1, the IC50 was in the range of 500 to 5000 nM.
On to `COc1cc(N2CCC(CN3CCN(c4ccc(C5CCC(=O)NC5=O)cc4)CC3)CC2)ccc1[C@@H]1c2[nH]c3ccccc3c2C[C@@H](C)N1CC(F)F` (stereo partly drawn) [Compound A46, 3-(4-(4-((1-(4-((1R,3R)-2-(2,2-difluoroethyl)-3-methyl-2,3,4,9-tetrahydro-1H-pyrido[3,4-b]indol-1-yl)-3-methoxyphenyl)piperidin-4-yl)methyl)piperazin-1-yl)phenyl)piperidine-2,6-dione], for which, at ER in T47D cells, the DC50 is < 1 nM and the Dmax was 25 to 50%. Besides, the IC50 at CRBN/DDB1 was in the range of 50 to 500 nM.
Consider `COc1cc(N2CCC(CN3CCN(c4cnc(C(=O)NC5CCC(=O)NC5=O)cc4OC)CC3)CC2)ccc1[C@@H]1c2[nH]c3ccccc3c2C[C@@H](C)N1CC(F)F` (stereo partly drawn) [Compound A56, 5-(4-((1-(4-((1R,3R)-2-(2,2-difluoroethyl)-3-methyl-2,3,4,9-tetrahydro-1H-pyrido[3,4-b]indol-1-yl)-3-methoxyphenyl)piperidin-4-yl)methyl)piperazin-1-yl)-N-(2,6-dioxopiperidin-3-yl)-4-methoxypicolinamide], for which, at ER in MCF-7 cells, the DC50 was < 1 nM and the Dmax lay in the range of 50 to 75%. The concentration for half-maximal inhibition (IC50) at CRBN/DDB1 was > 5000 nM.
